# Calls of active or inactive are those of the source. How the calls were made is not given here.
# Tested on: CCRIS mutagenicity, Ames/micronucleus/aberration tests
# Experiment: CCRIS mutagenicity studies
# [1] = Test System: AMES SALMONELLA TYPHIMURIUM, Strain/Indicator: TA100, Metabolic Activation: NONE, Method: STANDARD PLATE
# [2] = Test System: AMES SALMONELLA TYPHIMURIUM, Strain/Indicator: TA98, Metabolic Activation: NONE, Method: PREINCUBATION
# [3] = Test System: AMES SALMONELLA TYPHIMURIUM, Strain/Indicator: TA1535, Metabolic Activation: HAMSTER, LIVER, S-9, AROCLOR 1254 (10%), Method: PREINCUBATION
# [4] = Test System: AMES SALMONELLA TYPHIMURIUM, Strain/Indicator: TA1535, Metabolic Activation: NONE, Method: PREINCUBATION
# [5] = Test System: AMES SALMONELLA TYPHIMURIUM, Strain/Indicator: TA1535, Metabolic Activation: RAT, LIVER, S-9, AROCLOR 1254 (10%), Method: PREINCUBATION
# [6] = Test System: AMES SALMONELLA TYPHIMURIUM, Strain/Indicator: TA1537, Metabolic Activation: NONE, Method: PREINCUBATION
smiles,measurement,setting,value
Nc1cccc2c1-c1cccc3cccc-2c13,mutagenic call,"Test System: AMES SALMONELLA TYPHIMURIUM, Strain/Indicator: TA98, Metabolic Activation: RAT, LIVER, S-9, AROCLOR 1254 (2 OR 4%), Method: STANDARD PLATE",active; positive
same,mutagenic call,"Test System: AMES SALMONELLA TYPHIMURIUM, Strain/Indicator: TA100, Metabolic Activation: RAT, LIVER, S-9, AROCLOR 1254 (2%), Method: STANDARD PLATE",active; positive
same,mutagenic call,"Test System: AMES SALMONELLA TYPHIMURIUM, Strain/Indicator: TA1535, Metabolic Activation: RAT, LIVER, S-9, AROCLOR 1254 (2%), Method: STANDARD PLATE",inactive; negative
same,mutagenic call,"Test System: AMES SALMONELLA TYPHIMURIUM, Strain/Indicator: TA1537, Metabolic Activation: RAT, LIVER, S-9, AROCLOR 1254 (2%), Method: STANDARD PLATE",active; positive
COc1cc(-c2ccc(-[n+]3nc(-c4ccccc4)nn3-c3ccc([N+](=O)[O-])cc3)c(OC)c2)ccc1-[n+]1nc(-c2ccccc2)nn1-c1ccc([N+](=O)[O-])cc1,mutagenic call,[1],active; positive
same,mutagenic call,"Test System: AMES SALMONELLA TYPHIMURIUM, Strain/Indicator: TA100, Metabolic Activation: S-9 MIX, Method: STANDARD PLATE",active; positive
O=[N+]([O-])c1ccc(-c2cscn2)o1,mutagenic call,"Test System: AMES SALMONELLA TYPHIMURIUM, Strain/Indicator: TA100, Metabolic Activation: RAT, LIVER, S-9, KC500 OR PHENOBARBITAL, Method: LIQUID SUSPENSION",active; positive
CC(C)CCCCCOC(=O)C[S][Sn]([CH3])([S]CC(=O)OCCCCCC(C)C)[S]CC(=O)OCCCCCC(C)C,mutagenic call,"Test System: AMES SALMONELLA TYPHIMURIUM, Strain/Indicator: TA97, Metabolic Activation: HAMSTER, LIVER, S-9, AROCLOR 1254 (10%), Method: PREINCUBATION",inactive; negative
same,mutagenic call,"Test System: AMES SALMONELLA TYPHIMURIUM, Strain/Indicator: TA97, Metabolic Activation: HAMSTER, LIVER, S-9, AROCLOR 1254 (30%), Method: PREINCUBATION",inactive; negative
same,mutagenic call,"Test System: AMES SALMONELLA TYPHIMURIUM, Strain/Indicator: TA97, Metabolic Activation: NONE, Method: PREINCUBATION",inactive; negative
same,mutagenic call,"Test System: AMES SALMONELLA TYPHIMURIUM, Strain/Indicator: TA97, Metabolic Activation: RAT, LIVER, S-9, AROCLOR 1254 (10%), Method: PREINCUBATION",inactive; negative
same,mutagenic call,"Test System: AMES SALMONELLA TYPHIMURIUM, Strain/Indicator: TA97, Metabolic Activation: RAT, LIVER, S-9, AROCLOR 1254 (30%), Method: PREINCUBATION",inactive; negative
same,mutagenic call,"Test System: AMES SALMONELLA TYPHIMURIUM, Strain/Indicator: TA98, Metabolic Activation: HAMSTER, LIVER, S-9, AROCLOR 1254 (10 OR 30%), Method: PREINCUBATION",inactive; negative
same,mutagenic call,[2],inactive; negative
same,mutagenic call,"Test System: AMES SALMONELLA TYPHIMURIUM, Strain/Indicator: TA98, Metabolic Activation: RAT, LIVER, S-9, AROCLOR 1254 (10 OR 30%), Method: PREINCUBATION",inactive; negative
same,mutagenic call,"Test System: AMES SALMONELLA TYPHIMURIUM, Strain/Indicator: TA100, Metabolic Activation: HAMSTER, LIVER, S-9, AROCLOR 1254 (10 OR 30%), Method: PREINCUBATION",inactive; negative
same,mutagenic call,"Test System: AMES SALMONELLA TYPHIMURIUM, Strain/Indicator: TA100, Metabolic Activation: NONE, Method: PREINCUBATION",inactive; negative
same,mutagenic call,"Test System: AMES SALMONELLA TYPHIMURIUM, Strain/Indicator: TA100, Metabolic Activation: RAT, LIVER, S-9, AROCLOR 1254 (10 OR 30%), Method: PREINCUBATION",inactive; negative
same,mutagenic call,[3],inactive; negative
same,mutagenic call,"Test System: AMES SALMONELLA TYPHIMURIUM, Strain/Indicator: TA1535, Metabolic Activation: HAMSTER, LIVER, S-9, AROCLOR 1254 (30%), Method: PREINCUBATION",inactive; negative
same,mutagenic call,[4],inactive; negative
same,mutagenic call,[5],inactive; negative
same,mutagenic call,"Test System: AMES SALMONELLA TYPHIMURIUM, Strain/Indicator: TA1535, Metabolic Activation: RAT, LIVER, S-9, AROCLOR 1254 (30%), Method: PREINCUBATION",inactive; negative
same,mutagenic call,"Test System: AMES SALMONELLA TYPHIMURIUM, Strain/Indicator: TA1537, Metabolic Activation: HAMSTER, LIVER, S-9, AROCLOR 1254 (30%), Method: PREINCUBATION",inactive; negative
same,mutagenic call,[6],inactive; negative
same,mutagenic call,"Test System: AMES SALMONELLA TYPHIMURIUM, Strain/Indicator: TA1537, Metabolic Activation: RAT, LIVER, S-9, AROCLOR 1254 (30%), Method: PREINCUBATION",inactive; negative
COCC1O[C@@H](O[C@@H]2C(COC)OC(OC)C(OC)C2OC)C(OC)C(OC)C1OC (stereo partly drawn),mutagenic call,"Test System: AMES SALMONELLA TYPHIMURIUM, Strain/Indicator: TA98, Metabolic Activation: NONE, Method: STANDARD PLATE",inactive; negative
same,mutagenic call,"Test System: AMES SALMONELLA TYPHIMURIUM, Strain/Indicator: TA98, Metabolic Activation: RAT, LIVER, S-9, AROCLOR 1254, Method: STANDARD PLATE",inactive; negative
same,mutagenic call,[1],inactive; negative
same,mutagenic call,"Test System: AMES SALMONELLA TYPHIMURIUM, Strain/Indicator: TA100, Metabolic Activation: RAT, LIVER, S-9, AROCLOR 1254, Method: STANDARD PLATE",inactive; negative
same,mutagenic call,"Test System: AMES SALMONELLA TYPHIMURIUM, Strain/Indicator: TA1535, Metabolic Activation: NONE, Method: STANDARD PLATE",inactive; negative
same,mutagenic call,"Test System: AMES SALMONELLA TYPHIMURIUM, Strain/Indicator: TA1535, Metabolic Activation: RAT, LIVER, S-9, AROCLOR 1254, Method: STANDARD PLATE",inactive; negative
same,mutagenic call,"Test System: AMES SALMONELLA TYPHIMURIUM, Strain/Indicator: TA1537, Metabolic Activation: NONE, Method: STANDARD PLATE",inactive; negative
same,mutagenic call,"Test System: AMES SALMONELLA TYPHIMURIUM, Strain/Indicator: TA1537, Metabolic Activation: RAT, LIVER, S-9, AROCLOR 1254, Method: STANDARD PLATE",inactive; negative
same,mutagenic call,"Test System: AMES SALMONELLA TYPHIMURIUM, Strain/Indicator: TA1538, Metabolic Activation: NONE, Method: STANDARD PLATE",inactive; negative
same,mutagenic call,"Test System: AMES SALMONELLA TYPHIMURIUM, Strain/Indicator: TA1538, Metabolic Activation: RAT, LIVER, S-9, AROCLOR 1254, Method: STANDARD PLATE",inactive; negative
same,mutagenic call,"Test System: E. COLI, Strain/Indicator: WP2, Metabolic Activation: NONE, Method: STANDARD PLATE",inactive; negative
same,mutagenic call,"Test System: E. COLI, Strain/Indicator: WP2, Metabolic Activation: RAT, LIVER, S-9, AROCLOR 1254, Method: STANDARD PLATE",inactive; negative
Nc1ccc(N)c2ccccc12,mutagenic call,"Test System: AMES SALMONELLA TYPHIMURIUM, Strain/Indicator: TA98, Metabolic Activation: HAMSTER, LIVER, S-9, AROCLOR 1254 (5%), Method: PREINCUBATION",inactive; negative
same,mutagenic call,"Test System: AMES SALMONELLA TYPHIMURIUM, Strain/Indicator: TA98, Metabolic Activation: HAMSTER, LIVER, S-9, AROCLOR 1254 (30%), Method: PREINCUBATION",active; positive
same,mutagenic call,[2],inactive; negative
same,mutagenic call,"Test System: AMES SALMONELLA TYPHIMURIUM, Strain/Indicator: TA98, Metabolic Activation: RAT, LIVER, S-9, AROCLOR 1254 (5, 10 OR 30%), Method: PREINCUBATION",inactive; negative
same,mutagenic call,"Test System: AMES SALMONELLA TYPHIMURIUM, Strain/Indicator: TA98, Metabolic Activation: RAT, LIVER, S-9, AROCLOR 1254 (10%), Method: PREINCUBATION",inactive; negative
same,mutagenic call,"Test System: AMES SALMONELLA TYPHIMURIUM, Strain/Indicator: TA100, Metabolic Activation: HAMSTER, LIVER, S-9, AROCLOR 1254 (5%), Method: PREINCUBATION",inactive; negative
same,mutagenic call,"Test System: AMES SALMONELLA TYPHIMURIUM, Strain/Indicator: TA100, Metabolic Activation: HAMSTER, LIVER, S-9, AROCLOR 1254 (30%), Method: PREINCUBATION",active; positive
same,mutagenic call,"Test System: AMES SALMONELLA TYPHIMURIUM, Strain/Indicator: TA100, Metabolic Activation: RAT, LIVER, S-9, AROCLOR 1254 (5, 10 OR 30%), Method: PREINCUBATION",inactive; negative
same,mutagenic call,"Test System: AMES SALMONELLA TYPHIMURIUM, Strain/Indicator: TA100, Metabolic Activation: RAT, LIVER, S-9, AROCLOR 1254 (10%), Method: PREINCUBATION",inactive; negative
same,mutagenic call,[3],inactive; negative
same,mutagenic call,[4],inactive; negative
same,mutagenic call,[5],inactive; negative
same,mutagenic call,"Test System: AMES SALMONELLA TYPHIMURIUM, Strain/Indicator: TA1537, Metabolic Activation: HAMSTER, LIVER, S-9, AROCLOR 1254 (10%), Method: PREINCUBATION",inactive; negative
same,mutagenic call,[6],inactive; negative
same,mutagenic call,"Test System: AMES SALMONELLA TYPHIMURIUM, Strain/Indicator: TA1537, Metabolic Activation: RAT, LIVER, S-9, AROCLOR 1254 (10%), Method: PREINCUBATION",inactive; negative
